# Results taken from PubChem BioAssay AID624129 (Sanford-Burnham Center for Chemical Genomics, 2012).
# Activity calls are given as the source filed them. The rule behind the calls is not given here.
# What was measured:
# Assay in all cases: CXCR6 receptor antagonists, dose response, cell-based, beta-arrestin, DiscoveRx, APJ panel, uHTS hits (AID 624129)
# [1] = biological target: Apelin receptor (Homo sapiens) (UniProt P35414); settings: CXCR6 beta-arrestin (DiscoveRx) antagonist cell assay, APJ
# [2] = biological target: Beta-galactosidase (Escherichia coli) (UniProt Q8VNN2); settings: CXCR6 beta-arrestin (DiscoveRx) antagonist cell assay, b-galactosidase
# [3] = biological target: C-C chemokine receptor type 6 (Homo sapiens) (UniProt P51684); settings: CXCR6 beta-arrestin (DiscoveRx) antagonist cell assay
# [4] = biological target: C-X-C chemokine receptor type 6 (Homo sapiens) (UniProt O00574); settings: CXCR6 beta-arrestin (DiscoveRx) antagonist cell assay
# [5] = dose range 1, mean IC50 across replicates
# [6] = CCR6, dose range 1, mean IC50 across replicates
# [7] = CXCR6, dose range 1, mean IC50 across replicates
# [8] = CXCR6, run 1, dose range 2, at 80 µM (top of the series)
# Sequence of C-X-C chemokine receptor type 6 (Homo sapiens) (O00574 whole entry, looked up): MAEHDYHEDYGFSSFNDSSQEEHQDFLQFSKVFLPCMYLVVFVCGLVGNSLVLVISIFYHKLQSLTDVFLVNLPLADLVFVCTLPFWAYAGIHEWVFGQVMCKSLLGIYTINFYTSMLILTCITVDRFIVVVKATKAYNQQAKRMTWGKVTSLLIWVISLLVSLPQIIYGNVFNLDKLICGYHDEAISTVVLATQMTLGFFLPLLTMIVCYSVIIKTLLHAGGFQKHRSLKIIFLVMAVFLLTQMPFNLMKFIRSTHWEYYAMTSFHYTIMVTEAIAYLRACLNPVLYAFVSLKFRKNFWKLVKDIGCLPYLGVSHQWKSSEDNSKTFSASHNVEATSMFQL
# Sequence of Beta-galactosidase (Escherichia coli) (Q8VNN2 whole entry, looked up): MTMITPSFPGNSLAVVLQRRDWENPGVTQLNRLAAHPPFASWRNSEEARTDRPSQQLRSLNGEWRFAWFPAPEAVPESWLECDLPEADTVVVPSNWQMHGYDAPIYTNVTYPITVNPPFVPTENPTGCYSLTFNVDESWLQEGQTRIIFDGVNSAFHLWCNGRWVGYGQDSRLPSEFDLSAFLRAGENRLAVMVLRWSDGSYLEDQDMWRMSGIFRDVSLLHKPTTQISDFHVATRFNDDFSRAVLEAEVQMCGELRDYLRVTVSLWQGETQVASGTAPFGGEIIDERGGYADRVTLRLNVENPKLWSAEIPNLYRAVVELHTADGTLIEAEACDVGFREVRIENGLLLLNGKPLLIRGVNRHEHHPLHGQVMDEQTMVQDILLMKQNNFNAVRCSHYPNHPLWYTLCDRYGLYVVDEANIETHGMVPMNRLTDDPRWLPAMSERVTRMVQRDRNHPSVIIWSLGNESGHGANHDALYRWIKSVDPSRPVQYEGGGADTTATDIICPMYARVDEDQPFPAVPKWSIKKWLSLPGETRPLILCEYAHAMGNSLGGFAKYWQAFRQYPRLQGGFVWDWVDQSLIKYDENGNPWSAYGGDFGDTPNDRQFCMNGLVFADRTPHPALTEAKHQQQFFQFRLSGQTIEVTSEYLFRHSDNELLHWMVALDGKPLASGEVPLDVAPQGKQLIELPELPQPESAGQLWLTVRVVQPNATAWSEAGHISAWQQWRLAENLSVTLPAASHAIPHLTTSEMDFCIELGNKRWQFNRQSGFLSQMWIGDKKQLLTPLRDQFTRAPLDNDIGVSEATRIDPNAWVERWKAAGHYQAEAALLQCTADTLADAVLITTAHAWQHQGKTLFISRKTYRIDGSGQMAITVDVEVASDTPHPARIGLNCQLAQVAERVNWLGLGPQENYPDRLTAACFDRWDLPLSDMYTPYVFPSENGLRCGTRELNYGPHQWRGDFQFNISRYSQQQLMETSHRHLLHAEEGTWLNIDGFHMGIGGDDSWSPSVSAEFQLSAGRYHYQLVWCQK
Structure (SMILES),IC50 ([1]; dose range 1) [µM],"IC50 [1, 5] [µM]","IC50 ([1]; run 2, dose range 1) [µM]","IC50 ([1]; run 3, dose range 1) [µM]",IC50 ([2]; dose range 1),"IC50 [2, 5] [µM]","IC50 ([3]; CCR6, dose range 1) [µM]","IC50 [3, 6] [µM]","IC50 ([3]; CCR6, run 2, dose range 1) [µM]","IC50 ([4]; CXCR6, dose range 1)","IC50 [4, 7] [µM]","inhibition [4, 8] [%]","IC50 ([4]; CXCR6, run 2, dose range 1) [µM]","IC50 ([4]; CXCR6, run 1, dose range 2) [µM]","IC50 ([4]; CXCR6, run 2, dose range 2) [µM]","inhibition ([4]; CXCR6, run 1, dose range 2, at 10 µM (top of the series)) [%]"
Cc1ccc(S(=O)(=O)Nc2cccc3cccnc23)cc1,16.7,17.8,19,17.5,> 80 µM (inactive),> 80,7.97,8.52,9.06,10.3 µM,8.04,118,5.75,,,
Cc1[nH][nH]c(=O)c1C(c1c(C)[nH][nH]c1=O)c1cn(Cc2ccc(F)cc2)c2ccccc12,34.9,33.3,32.9,32,> 80 µM (inactive),> 80,23,21.6,20.2,inactive,28.2,97.7,27.7,,,
CN(C(=O)CSC1=Nc2ccccc2C2=NC(c3ccccc3)C(=O)N12)C1CCCCC1 (stereo not given),,> 80,> 80,> 80,> 80 µM (inactive),> 80,,> 80,> 80,> 80 µM (inactive),> 80,-15.6,> 80,,,
COc1ccc([N+](=O)[O-])c(S(=O)(=O)c2ccccc2)n1,21.5,22.9,> 80,24.4,inactive,50.7,22.6,19.5,16.5,inactive,35.4,102,24.9,,,
Nc1cc(Cl)c2nonc2c1[N+](=O)[O-],10.8,20.6,13.5,37.6,> 80 µM (inactive),> 80,5.46,7.31,9.16,11.5 µM,8.28,,7.17,7.05,7.35,
Cc1[nH][nH]c(=O)c1C(c1c(C)[nH][nH]c1=O)c1cn(Cc2ccc(Cl)c(Cl)c2)c2ccccc12,19.4,37,59.3,32.3,> 80 µM (inactive),> 80,16.6,22.1,27.6,inactive,26.6,115,24.8,,,
O=c1cc(CSc2ccc(Cl)cc2)nc(-c2ccccn2)[nH]1,3.53,3.82,3.74,4.18,> 80 µM (inactive),> 80,2.87,4.41,5.95,4.35 µM,3.68,,3.7,3.45,3.2,
O=C(N/N=C(\c1ccccc1)c1cccnc1)c1cccc(F)c1,4.18,4.46,5.15,4.05,> 80 µM (inactive),> 80,4.35,4.64,4.93,4.5 µM,4.01,,5.13,3.07,3.34,
C/C(=N\NC(=O)C1COc2ccccc2O1)c1ccccn1 (stereo not given),5.83,5.59,4.73,6.22,> 80 µM (inactive),> 80,3.22,3.87,4.51,inactive,15.5,,12.6,3.86,3.74,
CC(=O)Nc1ccc(NCC(=O)c2ccccc2)cc1,,26.2,24.9,27.5,inactive,58.9,28.9,26.3,23.7,inactive,23.7,62,21.9,,,
O=[N+]([O-])c1cc([N+](=O)[O-])c2cc3ccccc3nc2c1,,> 80,> 80,> 80,> 80 µM (inactive),> 80,,> 80,> 80,> 80 µM (inactive),> 80,-64.9,> 80,,,
CC(=O)Nc1ccc(NC(=O)c2nc(S(=O)(=O)Cc3cccc(C)c3)ncc2Cl)cc1,7.19,8.89,10.8,8.71,> 80 µM (inactive),> 80,6.61,5.6,4.59,,4.95,23.1,4.95,,,
COc1ccc(NC(=O)/C(Cl)=C(/Cl)S(=O)(=O)Cc2ccc(C)cc2)cn1,0.686,0.684,0.685,0.68,> 80 µM (inactive),> 80,0.489,0.686,0.883,0.963 µM,0.897,,0.832,,,99.9
CC(=NNc1nc2ccccc2s1)c1ncccn1,16.9,17.4,20.5,14.8,> 80 µM (inactive),> 80,7.51,8.91,10.3,inactive,11.3,125,10.5,,,
CC(=O)/C(=N\Nc1ccc(Cl)cc1Cl)Sc1cccc2cccnc12,2.83,3.28,3.64,3.36,> 80 µM (inactive),> 80,3.37,3.94,4.51,5.34 µM,4.07,,5.55,2.66,2.73,
O=C(/C=C/c1cccc([N+](=O)[O-])c1)c1ccc([N+](=O)[O-])o1,,> 80,> 80,> 80,> 80 µM (inactive),> 80,6.68,20.8,34.9,inactive,19,,> 80,7.73,7.58,
C/C(=N\NC(=O)c1ccc(F)cc1)c1ccccn1,0.853,1.01,1.4,0.79,> 80 µM (inactive),> 80,0.987,1.19,1.4,1.55 µM,1.14,,1.37,0.861,0.779,
Cc1c(Nc2cc(Cl)c3nonc3c2[N+](=O)[O-])c(=O)n(-c2ccccc2)n1C,4.55,4.26,4.09,4.16,> 80 µM (inactive),> 80,3.16,3.35,3.55,3.95 µM,3.92,,4.6,3.59,3.57,
COc1ccc(NC(=O)/C(Cl)=C(/Cl)S(=O)Cc2ccc(Cl)cc2)cn1 (stereo not given),,> 80,> 80,> 80,> 80 µM (inactive),> 80,,> 80,> 80,> 80 µM (inactive),> 80,-36.2,> 80,,,
Cc1ccc(-c2oc3ccccc3c(=O)c2O)cc1,22.8,14.7,12.2,9.18,> 80 µM (inactive),> 80,,9.06,9.06,7.44 µM,6.98,28.7,6.53,,,
Cc1ccc(OCCn2c(NC(=O)c3ccco3)nc3ccccc32)cc1,11.3,10.3,8.87,10.8,32.8 µM,32.8,4.28,3.98,3.68,6.41 µM,6.79,146,7.16,,,
CC(C)N=C1CCCC1C(=S)SSC(=S)C1CCCC1=NC(C)C (stereo not given),13.8,23.7,21.8,35.4,> 80 µM (inactive),> 80,9.02,10.2,11.4,inactive,11.4,,17.8,4.08,4.99,
